≈ marks a conversion by molar mass, not a printed value. Where “and” joins values, the source holds several entries; their conditions need not be identical. Equal entries are not always repeated. Where two headings read alike, the source gives them in different places.
Legend:
[1] = test system: E. coli ATCC 25922 control lineages; format: cell-based, Escherichia coli; settings: two technical duplicates; for MIC against peptidomimetic 1 after selection: MHB
Description: (§1) Continuous selection of resistance was performed for peptidomimetic 1 (Figure 1) and for the clinically relevant natural antimicrobial peptide, polymyxin B. A bacterial suspension of a single colony of E. coli ATCC 25922 was re-inoculated (10 µl) five times in unsupplemented MHB (990 µl). It was then re-inoculated in MHB supplemented with peptidomimetic 1 (ten lineages) or polymyxin B (ten lineages), and after ten re-inoculations at constant peptidomimetic or polymyxin B concentration, the concentrations were doubled. […] Four lineages grown in MHB with MilliQ water were included as control. Re-inoculations were performed twice a day, but were reduced to once a day when growth was slower as assessed by turbidity of the cultures. The total number of passages (supplemented with peptidomimetic/AMP) was 77 times equivalent to approx. 500 generations. For each increase in concentration the lineages were preserved as freezing stocks. Ten colony isolates were randomly selected from each lineage population at 32×MIC and preserved as freezing stocks.
(§2) MIC was determined by using the micro-dilution method according to guidelines of the Clinical and Laboratory Standards Institute. Peptidomimetic 1 and erythromycin 1∶2 serial dilutions were prepared from 1024 µg/mL stock solutions to give a final range of 512-0.5 µg/mL in the wells. Ampicillin 1∶2 serial dilutions were prepared from a 256 µg/mL stock solution to give a final range of 128-0.13 µg/mL in the wells. Polymyxin B and gentamicin 1∶2 serial dilutions were prepared from a 64 µg/mL stock solution to give a final range of 32-0.03 µg/mL in the wells. Also, 1∶2 serial dilutions of the AMPs KR-12, IsCTp, melittin and PEP-1-K were prepared from 64 µg/mL stock solutions to give a final range of 32-0.03 µg/mL in the wells; however this was performed in 1% peptone instead of in MHB since activity was drastically diminished in the latter (not shown).
(§3) The population lineages were tested for their susceptibility towards peptidomimetic 1, polymyxin B, gentamicin and ampicillin. Single-culture isolates selected from these populations were additionally tested against peptidomimetic 1, polymyxin B, erythromycin and the five reference AMPs. To estimate the level of cross-resistance to closely related peptidomimetics, MIC determinations were performed for peptidomimetics 2 and 3 (Figure 1) towards selected isolates. The bacterial suspensions were grown overnight in MHB at 37°C for determination of the population MIC, or individual isolates were grown overnight on non-selective BHI agar at 37°C. […] In all experiments, bacterial cells were suspended in 0.9% saline to give a turbidity of 0.13 at OD546 (approximately 1×10^8 CFU/mL) and diluted in MHB pH 7.4 to a final concentration of 5×10^5 CFU/mL in each well. Polypropylene plates (Nunc 442587) were used to minimize peptide binding, and the incubation time was 18–20 hours at 37°C. Incubation time was additionally extended up to 44 hours for the individual isolates due to a potential effect of growth rate on the outcome, but no effect was seen of this (not shown). MIC was found in a minimum of two technical (population MIC) or biological (isolate MIC) replicates as the lowest concentration of the AMP or antibiotic where no visible growth was observed.
(§4) Frozen stocks were reconditioned in unsupplemented MHB media for five transfers (∼35 generations) at 37°C. The heritability of resistance was established through MIC determination of bacterial populations as described above.

[2] = test system: E. coli ATCC 25922 lineages adapted to peptidomimetic 1; format: cell-based, Escherichia coli; settings: two technical duplicates; for MIC against peptidomimetic 1 after selection: MHB pH 7.4, 37°C, 18–20 h
Description: as §1, §2, §3, §4

[3] = test system: E. coli ATCC 25922 lineages adapted to polymyxin B; format: cell-based, Escherichia coli; settings: polymyxin B-exposed lineages, ~35 generations unsupplemented; became similar to controls; not shown
Description: as §1, §2, §3, §4

[4] = test system: isolates from peptidomimetic 1-exposed E. coli ATCC 25922 lineages; settings: for MIC in MHB: standard MHB media
Description: as §1
MIC was determined by using the micro-dilution method according to guidelines of the Clinical and Laboratory Standards Institute. Peptidomimetic 1 and erythromycin 1∶2 serial dilutions were prepared from 1024 µg/mL stock solutions to give a final range of 512-0.5 µg/mL in the wells. Ampicillin 1∶2 serial dilutions were prepared from a 256 µg/mL stock solution to give a final range of 128-0.13 µg/mL in the wells. Polymyxin B and gentamicin 1∶2 serial dilutions were prepared from a 64 µg/mL stock solution to give a final range of 32-0.03 µg/mL in the wells.
as §3, with “Incubation time was additionally extended up to 44 hours for the individual isolates due to a potential effect of growth rate on the outcome, but no effect was seen of this (not shown).” left out

CC(=O)N[C@@H](CCCCNC(=N)N)C(=O)N(CCC(=O)N[C@@H](CCCCNC(=N)N)C(=O)N(CCC(=O)N[C@@H](CCCCNC(=N)N)C(=O)N(CCC(=O)N[C@@H](CCCCNC(=N)N)C(=O)N(CCC(=O)N[C@@H](CCCCNC(=N)N)C(=O)N(CCC(=O)N[C@@H](CCCCNC(=N)N)C(=O)N(CCC(N)=O)[C@@H](C)c1ccccc1)[C@@H](C)c1ccccc1)[C@@H](C)c1ccccc1)[C@@H](C)c1ccccc1)[C@@H](C)c1ccccc1)[C@@H](C)c1ccccc1 [peptidomimetic 1]
MIC against peptidomimetic 1 after 35 generations w/o selection ([1]; Control 1 lineage (MilliQ water)): 16 to 32 µg/mL | MIC against peptidomimetic 1 after selection ([1]; Control 1 lineage (MilliQ water, no peptidomimetic)): 32 µg/mL (≈ 15 µM) | MIC against peptidomimetic 1 after 35 generations w/o selection ([1]; Control 2 lineage (MilliQ water)): 8 µg/mL (≈ 3.75 µM) | MIC against peptidomimetic 1 after selection ([1]; Control 2 lineage (MilliQ water, no peptidomimetic)): 8 µg/mL (≈ 3.75 µM) | MIC against peptidomimetic 1 after 35 generations w/o selection ([2]; peptidomimetic-exposed lineage 1, five passages in unsupplemented MHB): 128 to 256 µg/mL | MIC against peptidomimetic 1 after 35 generations w/o selection ([2]; peptidomimetic-exposed lineage 2, five passages in unsupplemented MHB): 256 µg/mL (≈ 120 µM) | MIC against peptidomimetic 1 after selection ([2]; peptidomimetic-exposed lineage 2, population outgrown at 32×wt MIC): 256 µg/mL (≈ 120 µM) | MIC against peptidomimetic 1 after 35 generations w/o selection ([2]; peptidomimetic-exposed lineage 3, five passages in unsupplemented MHB): 128 µg/mL (≈ 60 µM) | MIC against peptidomimetic 1 after 35 generations w/o selection ([2]; peptidomimetic-exposed lineage 4, five passages in unsupplemented MHB): 128 µg/mL (≈ 60 µM) | MIC against peptidomimetic 1 after selection ([2]; peptidomimetic-exposed lineage 4, population outgrown at 32×wt MIC): 256 µg/mL (≈ 120 µM) | MIC against peptidomimetic 1 after 35 generations w/o selection ([2]; peptidomimetic-exposed lineage 5, five passages in unsupplemented MHB): 128 µg/mL (≈ 60 µM) | MIC against peptidomimetic 1 after selection ([2]; peptidomimetic-exposed lineage 5, population outgrown at 32×wt MIC): 128 µg/mL and 64 to 128 µg/mL | MIC against peptidomimetic 1 after 35 generations w/o selection ([2]; peptidomimetic-exposed lineage 6, five passages in unsupplemented MHB): 64 to 128 µg/mL | MIC against peptidomimetic 1 after 35 generations w/o selection ([2]; peptidomimetic-exposed lineage 7, five passages in unsupplemented MHB): 128 µg/mL (≈ 60 µM) | MIC against peptidomimetic 1 after selection ([2]; peptidomimetic-exposed lineage 7, population outgrown at 32×wt MIC): 128 µg/mL (≈ 60 µM) | MIC against peptidomimetic 1 after 35 generations w/o selection ([2]; peptidomimetic-exposed lineage 8, five passages in unsupplemented MHB): 32 to 64 µg/mL | MIC against peptidomimetic 1 after 35 generations w/o selection ([2]; peptidomimetic-exposed lineage 9, five passages in unsupplemented MHB): 128 µg/mL (≈ 60 µM) | MIC against peptidomimetic 1 after 35 generations w/o selection ([2]; peptidomimetic-exposed lineage 10, five passages in unsupplemented MHB): 32 µg/mL (≈ 15 µM) | MIC against peptidomimetic 1 after selection ([2]; peptidomimetic-exposed lineage 10, population outgrown at 32×wt MIC): 256 µg/mL (≈ 120 µM) | cross-resistance after removal of the selection pressure [3]: lost | MIC of individual isolates ([4]; eight out of ten isolates from lineage no. 4): 8 µg/mL | MIC of isolate ([4]; isolate 2–3, first listed of three biological replicates): 8 µg/mL | MIC of isolate ([4]; isolate 2–3, second listed of three biological replicates): 16 µg/mL | MIC of isolate ([4]; isolate 2–3, third listed of three biological replicates): 64 µg/mL | MIC in MHB ([4]; isolate 2–7 (lineage 2)): 64 to 128 µg/mL | MIC of isolate ([4]; isolate 2–8, first listed of three biological replicates): 16 µg/mL | MIC of isolate ([4]; isolate 2–8, second listed of three biological replicates): 64 µg/mL | MIC of isolate ([4]; isolate 2–8, third listed of three biological replicates): 128 µg/mL | MIC in MHB ([4]; isolate 4–4 (lineage 4)): 8 µg/mL (≈ 3.75 µM) | MIC in MHB ([4]; isolate 5–6 (lineage 5)): 32 to 64 µg/mL | MIC in MHB ([4]; isolate 7–3 (lineage 7)): 128 µg/mL (≈ 60 µM) | grouping of genome-sequenced isolates by MIC: high resistance ([4]; isolates 2–4, 2–6, 2–7, 2–9, 2–10, 7–3, 7–4, 7–7, wt MIC value 8 µg/mL): High resistance isolates: 8–16 ×wt MIC | MIC ([4]; isolates 2–4 and 2–6 (shared values), two biological replicates, mean when results varied): 96 µg/mL (≈ 45 µM) | grouping of genome-sequenced isolates by MIC: low resistance ([4]; isolates 4-1, 4-3, 5-6, 5-8, 5-9, wt MIC value 8 µg/mL): Low resistance isolates: 4–8 ×wt MIC | grouping of genome-sequenced isolates by MIC ([4]; isolates 4–4, 4–6, 4–10, 5–2, 5–4, 7–9, 7–10, wt MIC value 8 µg/mL): Isolates with wt MIC | MIC of individual isolates ([4]; seven out of ten isolates from lineage no. 5): 8 µg/mL | MIC lower as compared to that of the lineage population (256 µg/mL) ([4]; the other two isolates from lineage no. 4): 4 fold | MIC of individual isolates, span ([4]; the ten isolates from lineage no. 2, biological replicates): 8 to 128 µg/mL | MIC of individual isolates, span ([4]; the ten isolates from lineage no. 7): 8 to 128 µg/mL

— paper PMC3764026, “Adaptive Evolution of Escherichia coli to an α-Peptide/β-Peptoid Peptidomimetic Induces Stable Resistance” (PLoS ONE, 2013)
